In patent publication US10202377B2, “3-(1H-benzo[D]imidazol-2-yl)-1H-pyrazolo[3,4-C]pyridine and therapeutic uses thereof” (Samumed, LLC, priority 2014, dated 2019):

Tests used:
[1] = system: Wnt activity (Sp5-Luc reporter, SW480 colon carcinoma cells); test: Sp5-Luc Wnt reporter gene screening assay in SW480 colon carcinoma cells; conditions: Homo sapiens
Experimental: The screening assay for Wnt activity is described as follows.
SW480 colon carcinoma cells were transduced with a lentiviral vector expressing luciferase with a human Sp5 promoter consisting of a sequence of eight TCF/LEF binding sites. SW480 cells stably expressing the Sp5-Luc reporter gene and a hygromycin resistance gene were selected by treatment with 150 μg/ml of hygromycin for 7 days. These stably transduced SW480 cells were expanded in cell culture and used for all further screening activities. For Sp5-Luc reporter gene assays, the cells were plated at 10,000 cells/well in 96-well plates with growth medium containing 10% fetal calf serum and incubated overnight at 37° C. and 5% CO2. […] Compound transfer from serially diluted source plates to assay plates containing the cells was accomplished using a pintool (Multimek 96, Beckman equipped with V&P Scientific FP1S50H pins) based liquid handling protocol. This protocol used a slotted pin to transfer 50 nl of compound from a source plate well to an assay plate well containing 50 μl of cells in growth medium. […] Control wells received 50 nl of DMSO treatment for normalization and calculating IC50 values. The treated cells were incubated at 37° C. and 5% CO2 for an additional forty-two hours. Following incubation, the growth medium was removed and 50 μl of BrightGlo luminescence reagent (Promega) was added to each well of the 96-well assay plates. The plates were placed on an orbital shaker for 5 min and then luminescence was quantified on the Victor3 (Perkin Elmer) plate reader.

[2] = system: primary human fibroblasts derived from IPF patients (LL29 cells); test: Inhibition of fibrosis (αSMA staining) in TGF-β1-treated primary human fibroblasts from IPF patients; assay type: cell-based; conditions: Fibroblast, 96 h, TGF-β1 20 ng/mL, 4 days
Method in brief: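 LL29 IPF fibroblasts in F12 with 1% FBS were stimulated with TGF-β1 (20 ng/mL) and incubated 4 days at 37 °C. SYTOX-positive dead cells were excluded, and αSMA-positive cells were counted by immunostaining as % of total. Values were normalized to TGF-β1/DMSO wells on the same plate, and EC50 derived.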

Question: CC(=O)c1ccc(-c2cccc3[nH]c(-c4n[nH]c5cnc(-c6cncc(NC(=O)Cc7ccccc7)c6)cc45)nc23)s1 [Compound 400, N-(5-(3-(4-(5-Acetylthiophen-2-yl)-1H-benzo[d]imidazol-2-yl)-1H-pyrazolo[3,4-c]pyridin-5-yl)pyridin-3-yl)-2-phenylacetamide] was tested. Which IC50 [1] did it give?
Answer: 42.3 nM

Question: What about the EC50 [2] of the same molecule?
Answer: 218 nM

Question: How did the IC50 [1] turn out when CC(=O)c1ccc(-c2cccc3[nH]c(-c4n[nH]c5cnc(-c6cncc(NC(=O)C7CCCCC7)c6)cc45)nc23)s1 [Compound 412, N-(5-(3-(4-(5-Acetylthiophen-2-yl)-1H-benzo[d]imidazol-2-yl)-1H-pyrazolo[3,4-c]pyridin-5-yl)pyridin-3-yl)cyclohexanecarboxamide] was run?
Answer: 150 nM

Question: And the EC50 [2]?
Answer: 9180 nM

Question: With CC(C)(C)C(=O)Nc1cncc(-c2cc3c(-c4nc5c(-c6cc(F)cc(CNS(C)(=O)=O)c6)cccc5[nH]4)n[nH]c3cn2)c1 [Compound 424, N-(5-(3-(4-(3-Fluoro-5-(methylsulfonamidomethyl)phenyl)-1H-benzo[d]imidazol-2-yl)-1H-pyrazolo[3,4-c]pyridin-5-yl)pyridin-3-yl)pivalamide] as the molecule, how does the IC50 [1] read?
Answer: 19.9 nM

Question: And the EC50 [2]?
Answer: 51 nM

Question: Which results are given for CS(=O)(=O)NCc1cc(F)cc(-c2cccc3[nH]c(-c4n[nH]c5cnc(-c6cncc(NC(=O)c7ccccc7)c6)cc45)nc23)c1 [Compound 427, N-(5-(3-(4-(3-Fluoro-5-(methylsulfonamidomethyl)phenyl)-1H-benzo[d]imidazol-2-yl)-1H-pyrazolo[3,4-c]pyridin-5-yl)pyridin-3-yl)benzamide]?
Answer: IC50 [1]: 172 nM; EC50 [2]: 9 nM

Question: How did the IC50 [1] turn out when CCCC(=O)Nc1cncc(-c2cc3c(-c4nc5c(-c6cc(F)cc(CNS(C)(=O)=O)c6)cccc5[nH]4)n[nH]c3cn2)c1 [Compound 433, N-(5-(3-(4-(3-Fluoro-5-(methylsulfonamidomethyl)phenyl)-1H-benzo[d]imidazol-2-yl)-1H-pyrazolo[3,4-c]pyridin-5-yl)pyridin-3-yl)butyramide] was run?
Answer: 28.5 nM

Question: What about the EC50 [2] of the same molecule?
Answer: 9 nM

Question: How did the IC50 [1] turn out when CS(=O)(=O)NCc1cc(F)cc(-c2cccc3[nH]c(-c4n[nH]c5cnc(-c6cncc(CNCc7ccccc7)c6)cc45)nc23)c1 [Compound 439, N-(3-(2-(5-(5-((Benzylamino)methyl)pyridin-3-yl)-1H-pyrazolo[3,4-c]pyridin-3-yl)-1H-benzo[d]imidazol-4-yl)-5-fluorobenzyl)methanesulfonamide] was run?
Answer: 40.1 nM

Question: What about the EC50 [2] of the same molecule?
Answer: 9 nM

Question: For CS(=O)(=O)NCc1cc(F)cc(-c2cccc3[nH]c(-c4n[nH]c5cnc(-c6cncnc6)cc45)nc23)c1 [Compound 442, N-(3-Fluoro-5-(2-(5-(pyrimidin-5-yl)-1H-pyrazolo[3,4-c]pyridin-3-yl)-1H-benzo[d]imidazol-4-yl)benzyl)methanesulfonamide], which IC50 [1] is on record?
Answer: 26 nM

Question: And the EC50 [2]?
Answer: 9 nM

Question: Which results are given for CCNCc1cncc(-c2cc3c(-c4nc5c(-c6cc(F)cc(NCCN(C)C)c6)cccc5[nH]4)n[nH]c3cn2)c1 [Compound 448, N^1-(3-(2-(5-(5-((Ethylamino)methyl)pyridin-3-yl)-1H-pyrazolo[3,4-c]pyridin-3-yl)-1H-benzo[d]imidazol-4-yl)-5-fluorophenyl)-N^2,N^2-dimethylethane-1,2-diamine]?
Answer: IC50 [1]: 671 nM; EC50 [2]: 9 nM

Question: How did the IC50 [1] turn out when CN(C)CCNc1cc(F)cc(-c2cccc3[nH]c(-c4n[nH]c5cnc(-c6cncc(NC(=O)C(C)(C)C)c6)cc45)nc23)c1 [Compound 450, N-(5-(3-(4-(3-((2-(Dimethylamino)ethyl)amino)-5-fluorophenyl)-1H-benzo[d]imidazol-2-yl)-1H-pyrazolo[3,4-c]pyridin-5-yl)pyridin-3-yl)pivalamide] was run?
Answer: 159 nM

Question: And the EC50 [2]?
Answer: 85 nM

Question: With CCCCC(=O)Nc1cncc(-c2cc3c(-c4nc5c(-c6cc(F)cc(NCCN(C)C)c6)cccc5[nH]4)n[nH]c3cn2)c1 [Compound 460, N-(5-(3-(4-(3-((2-(Dimethylamino)ethyl)amino)-5-fluorophenyl)-1H-benzo[d]imidazol-2-yl)-1H-pyrazolo[3,4-c]pyridin-5-yl)pyridin-3-yl)pentanamide] as the molecule, how does the IC50 [1] read?
Answer: 182 nM

Question: What about the EC50 [2] of the same molecule?
Answer: 1060 nM
